Assay results taken from US20130261077A1 (priority 2012, published 2013).

Target: T1, FimH-CRD (Escherichia coli, UniProt P08191)
T1 construct: The first 177 amino acids of the FimH protein; thrombin tag (printed as 'fusion protein with thrombin') (cleaved yes); made in house; host or cells: bacteria (pET21b plasmid)
Experiment: Competitive binding assay by fluorescence polarization, assay 1 (compounds prepared by manual serial dilution)
Method: The first 177 amino acids of the FimH protein were expressed as a fusion protein with thrombin in a pET21b plasmid in bacteria. This FimH protein sequence contains the carbohydrate recognition domain (CRD) and shall be termed FimH-CRD. Following bacterial expression of the protein, the FimH-CRD protein was purified to homogeneity and the thrombin tag removed by protease cleavage. A competitive binding assay by fluorescence polarization was performed using 5 nM of the Alexa 647 mannoside probe and 60 nM of the FimH-CRD. The samples are assayed in a low volume 384 well microtiter plate in a final volume of 20 μl. The final assay buffer conditions are the following, 50 mM Tris-Cl, ph 7.0, 100 mM NaCl, 1 mM EDTA, 5 mM β-mercaptoethanol, 0.05% BSA and 2.5% DMSO. Two assays are performed for FimH, termed assay 1 or assay 2. The assay conditions are the same for both assays except the following: assay 1 has compounds prepared by manual dilution in a serial dilution factor with 12-point dose response while assay 2 has compounds prepared by a robotics system also through a serial dilution factor (12 point dose response) and initially prepared in duplicate in 384 well-Corning polypropylene round bottom plates. The assay 2 plates have compound which is then frozen and must be thawed prior to use. Initially the Alexa 647 probe and the FimH-CRD are added to the assay buffer and then 0.5 μl of test compound (assay 1 or 2) between 0.4 nM to 75 μM final concentration are added (12 point titration with 3-fold serial dilution). Control wells for the Alexa 647 probe are prepared with the same conditions except for the addition of the FimH-CRD protein. Plates are then incubated for 5 hrs at room temperature in the dark and under humid conditions to prevent drying. Plates are read using the SpectraMax Paradigm multi-mode plate reader and the appropriate fluorescent polarization detection cartridge (Alexa-647).
Alexa 647 mannoside probe is prepared using the similar procedure reported for FAM mannoside (Han, Z. et. al., 2010, J. Med. Chem., 53, 4779) and is described in the scheme below.
To a blue colored stirred solution of (2S,3S,4S,5S,6R)-2-(4-aminobutoxy)-6-(hydroxymethyl)tetrahydropyran-3,4,5-triol (2.21 mg, 0.009 mmol) and the (2E)-2-[(2E,4E)-5-[3,3-dimethyl-5-sulfonato-1-(3-sulfonatopropyl)indol-1-ium-2-yl]penta-2,4-dienylidene]-3-[6-(2,5-dioxopyrrolidin-1-yl)oxy-6-oxo-hexyl]-3-methyl-1-(3-sulfonatopropyl)indoline-5-sulfonate (Potassium Ion (3)) (4.9 mg, 0.0044 mmol) in DMF (44 μL) is added Et3N (5.4 mg, 7.0 μL, 0.053 mmol) at RT. The solution is stirred at room temperature over night, concentrated, dissolved in water and purified on 12 g C-18 silica gel cartridge on Isolera system using acetonitrile in water (0 to 40%, 10 CV) and followed by lyophilization to afford Alexa 647 mannoside probe (3.3 mg, 34%) as deep blue solid.
The Kd values of the compounds are determined from dose response curves using twelve concentrations per compound in duplicate. Curves are fitted to data points using Fluorescence Polarization competitive displacement analysis, and Kds are interpolated from the resulting curves using GraphPad Prism software, version […] (GraphPad software Inc., San Diego, Calif., USA).

T1 sequence (P08191 22-177): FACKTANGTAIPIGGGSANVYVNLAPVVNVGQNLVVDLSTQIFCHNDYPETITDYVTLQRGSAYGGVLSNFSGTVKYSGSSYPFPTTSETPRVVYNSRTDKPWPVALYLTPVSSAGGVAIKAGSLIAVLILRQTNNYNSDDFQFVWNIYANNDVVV

Compound	IC50 [nM]	Kd [nM]
O=C(Nc1nc2ccc(Cl)cc2s1)c1cccc([C@H]2O[C@H](CO)[C@@H](O)[C@H](O)[C@@H]2O)c1 [Compound 30, N-(6-chlorobenzo[d]thiazol-2-yl)-3-((2R,3S,4R,5S,6R)-3,4,5-trihydroxy-6-(hydroxymethyl)tetrahydro-2H-pyran-2-yl)benzamide]	53	9.8 ± 1.8
CCCc1ccc(NC(=O)c2cccc([C@H]3O[C@H](CO)[C@@H](O)[C@H](O)[C@@H]3O)c2)cc1 [Compound 31, N-(4-propylphenyl)-3-((2R,3S,4R,5S,6R)-3,4,5-trihydroxy-6-(hydroxymethyl)tetrahydro-2H-pyran-2-yl)benzamide]	84	22.8 ± 0.9
O=C(Nc1ccc2ccccc2c1)c1cccc([C@H]2O[C@H](CO)[C@@H](O)[C@H](O)[C@@H]2O)c1 [Compound 32, N-(naphthalen-2-yl)-3-((2R,3S,4R,5S,6R)-3,4,5-trihydroxy-6-(hydroxymethyl)tetrahydro-2H-pyran-2-yl)benzamide]	45	22.6 ± 18.7
O=C(NCc1ccccc1)c1cccc([C@H]2O[C@H](CO)[C@@H](O)[C@H](O)[C@@H]2O)c1 [Compound 33, N-benzyl-3-((2R,3S,4R,5S,6R)-3,4,5-trihydroxy-6-(hydroxymethyl)tetrahydro-2H-pyran-2-yl)benzamide]	76	28.9 ± 14.5
O=C(NCCc1ccccc1)c1cccc([C@H]2O[C@H](CO)[C@@H](O)[C@H](O)[C@@H]2O)c1 [Compound 34, N-phenethyl-3-((2R,3S,4R,5S,6R)-3,4,5-trihydroxy-6-(hydroxymethyl)tetrahydro-2H-pyran-2-yl)benzamide]	124	38 ± 7.1
O=C(NC1CC1)c1cccc([C@H]2O[C@H](CO)[C@@H](O)[C@H](O)[C@@H]2O)c1 [Compound 36, N-cyclopropyl-3-((2R,3S,4R,5S,6R)-3,4,5-trihydroxy-6-(hydroxymethyl)tetrahydro-2H-pyran-2-yl)benzamide]	168	53.2 ± 6.5
O=C(NCC1CC1)c1cccc([C@H]2O[C@H](CO)[C@@H](O)[C@H](O)[C@@H]2O)c1 [Compound 37, N-(cyclopropylmethyl)-3-((2R,3S,4R,5S,6R)-3,4,5-trihydroxy-6-(hydroxymethyl)tetrahydro-2H-pyran-2-yl)benzamide]		40.1 ± 15.1
CNC(=O)c1cccc(-c2ccccc2[C@H]2O[C@H](CO)[C@@H](O)[C@H](O)[C@@H]2O)c1 [Compound 39, N-methyl-2′-((2R,3S,4R,5S,6R)-3,4,5-trihydroxy-6-(hydroxymethyl)tetrahydro-2H-pyran-2-yl)-[1,1′-biphenyl]-3-carboxamide]	1390	396 ± 44.7
COc1ccc(Br)cc1[C@H]1O[C@H](CO)[C@@H](O)[C@H](O)[C@@H]1O [Compound 41, (2R,3S,4R,5S,6R)-2-(5-bromo-2-methoxyphenyl)-6-(hydroxymethyl)tetrahydro-2H-pyran-3,4,5-triol]	223	47.8 ± 6.8
COC(=O)CCc1ccc(OC)c([C@H]2O[C@H](CO)[C@@H](O)[C@H](O)[C@@H]2O)c1 [Compound 42, Methyl 3-(4-methoxy-3-((2R,3S,4R,5S,6R)-3,4,5-trihydroxy-6-(hydroxymethyl)tetrahydro-2H-pyran-2-yl)phenyl)propanoate]	225	58.4 ± 9.8
OC[C@H]1O[C@H](c2cccc(-c3ccccc3)c2)[C@@H](O)[C@@H](O)[C@@H]1O [Compound 43, (2R,3S,4R,5S,6R)-2-(hydroxymethyl)-6-(3-phenylphenyl)tetrahydropyran-3,4,5-triol]	64	12.4 ± 1.3
OC[C@H]1O[C@H](c2ccccc2O)[C@@H](O)[C@@H](O)[C@@H]1O [Compound 45, (2R,3S,4R,5S,6R)-2-(hydroxymethyl)-6-(2-hydroxyphenyl)tetrahydropyran-3,4,5-triol]	183	76.9 ± 49.1
OC[C@H]1O[C@H](c2ccc(O)cc2)[C@@H](O)[C@@H](O)[C@@H]1O [Compound 46, (2R,3S,4R,5S,6R)-2-(hydroxymethyl)-6-(4-hydroxyphenyl)tetrahydropyran-3,4,5-triol]	148	28.2 ± 13.3
OC[C@H]1O[C@H](c2cccc(F)c2)[C@@H](O)[C@@H](O)[C@@H]1O [Compound 47, (2R,3S,4R,5S,6R)-2-(3-fluorophenyl)-6-(hydroxymethyl)tetrahydropyran-3,4,5-triol]	163	40.6 ± 10.4
CC(C)C(=O)Nc1ccc(-c2cccc([C@H]3O[C@H](CO)[C@@H](O)[C@H](O)[C@@H]3O)c2)cc1 [Compound 49, 2-methyl-N-[4-[3-[(2R,3S,4R,5S,6R)-3,4,5-trihydroxy-6-(hydroxymethyl)tetrahydropyran-2-yl]phenyl]phenyl]propanamide]	45	6.3 ± 1.4
CNS(=O)(=O)c1cccc(-c2cccc([C@H]3O[C@H](CO)[C@@H](O)[C@H](O)[C@@H]3O)c2)c1 [Compound 50, N-methyl-3-[3-[(2R,3S,4R,5S,6R)-3,4,5-trihydroxy-6-(hydroxymethyl)tetrahydropyran-2-yl]phenyl]benzenesulfonamide]	39	10.7 ± 5.2
COC(=O)c1cc(Oc2cccc([C@H]3O[C@H](CO)[C@@H](O)[C@H](O)[C@@H]3O)c2)cc(C(=O)OC)c1 [Compound 51, Dimethyl 5-[3-[(2R,3S,4R,5S,6R)-3,4,5-trihydroxy-6-(hydroxymethyl)tetrahydropyran-2-yl]phenoxy]benzene-1,3-dicarboxylate]	33	5.2 ± 0.1
COC(=O)c1ccc(Oc2cccc([C@H]3O[C@H](CO)[C@@H](O)[C@H](O)[C@@H]3O)c2)cc1 [Compound 52, Methyl 4-[3-[(2R,3S,4R,5S,6R)-3,4,5-trihydroxy-6-(hydroxymethyl)tetrahydropyran-2-yl]phenoxy]benzoate]	23	< 5
COC(=O)Cc1ccc(Oc2ccc([C@H]3O[C@H](CO)[C@@H](O)[C@H](O)[C@@H]3O)cc2)cc1 [Compound 55, methyl 2-(4-(4-((2R,3S,4R,5S,6R)-3,4,5-trihydroxy-6-(hydroxymethyl)tetrahydro-2H-pyran-2-yl)phenoxy)phenyl)acetate]	35	6.3 ± 0.4
COC(=O)c1cccc(Oc2ccc([C@H]3O[C@H](CO)[C@@H](O)[C@H](O)[C@@H]3O)cc2)c1 [Compound 56, Methyl 3-(4-((2R,3S,4R,5S,6R)-3,4,5-trihydroxy-6-(hydroxymethyl)tetrahydro-2H-pyran-2-yl)phenoxy)benzoate]	14	5.4 ± 0.3
OC[C@H]1O[C@H](c2cccc(Oc3ccc(F)cc3)c2)[C@@H](O)[C@@H](O)[C@@H]1O [Compound 57, (2R,3S,4R,5S,6R)-2-[3-(4-fluorophenoxy)phenyl]-6-(hydroxymethyl)tetrahydropyran-3,4,5-triol]	76	13.2 ± 0.2
Cc1cc(C)cc(Oc2cccc([C@H]3O[C@H](CO)[C@@H](O)[C@H](O)[C@@H]3O)c2)c1 [Compound 58, (2R,3S,4R,5S,6R)-2-[3-(3,5-dimethylphenoxy)phenyl]-6-(hydroxymethyl)tetrahydropyran-3,4,5-triol]	66	11.1 ± 1.6
OC[C@H]1O[C@H](c2cccc(Oc3ccccc3)c2)[C@@H](O)[C@@H](O)[C@@H]1O [Compound 59, (2R,3S,4R,5S,6R)-2-(hydroxymethyl)-6-(3-phenoxyphenyl)tetrahydropyran-3,4,5-triol]	26	6.3 ± 0.9
COc1ccc([C@H]2O[C@H](CO)[C@@H](O)[C@H](O)[C@@H]2O)cc1O [Compound 61, (2R,3S,4R,5S,6R)-2-(3-hydroxy-4-methoxy-phenyl)-6-(hydroxymethyl)tetrahydropyran-3,4,5-triol]	42	17.2 ± 10.7
